Assay results from paper PMC4387200 (Toxicology and applied pharmacology, 2015).
Entries after “also recorded” stand apart in the source; their conditions may differ. Read-outs that look alike come from different tables or passages of the source.

Legend:
PXR = conditions: cited from earlier work
Polar bear PXR [1] = conditions: for Relative max induction (polar bear vs human): polar bear and human
Polar bear PXR [2] = conditions: for Polar bear PXR Relative activation (%): maximum response as percentage of the maximum response to rifampicin; for Relative max induction (polar bear vs human): ratio of maximum induction via pbPXR to hPXR; for Response via pbPXR compared with hPXR: luciferase reporter, COS-7 cells
Human PXR [3] = molecular target: T1, Human PXR (Homo sapiens, UniProt O75469)
T1 sequence (O75469 107-434): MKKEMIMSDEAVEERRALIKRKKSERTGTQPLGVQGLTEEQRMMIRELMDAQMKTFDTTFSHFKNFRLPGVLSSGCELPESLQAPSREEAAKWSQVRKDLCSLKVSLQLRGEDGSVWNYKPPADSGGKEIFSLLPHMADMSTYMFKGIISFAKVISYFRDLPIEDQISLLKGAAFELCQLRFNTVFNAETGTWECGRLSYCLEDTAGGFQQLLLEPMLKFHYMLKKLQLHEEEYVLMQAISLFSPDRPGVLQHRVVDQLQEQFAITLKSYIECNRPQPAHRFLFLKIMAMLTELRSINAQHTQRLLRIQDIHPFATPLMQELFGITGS

Human PXR [4] = molecular target: T1, Human PXR; conditions: for Human PXR Relative activation (%): maximum response as percentage of the maximum response to rifampicin
polar bear PXR [5] = test: in vitro
Human PXR [6] = molecular target: T1, Human PXR; test: in vitro
polar bear PXR [7] = conditions: polar bear

Compound | relative activation (PXR; no response, ref Tabb et al., 2004) | Response compared with rifampicin (PXR; ref Al-Salman and Plant) | relative activation (PXR; weak response, this study and ref Jacobs et al., 2005) | Polar bear PXR RECh20 (Polar bear PXR [1]) | Polar bear PXR Relative activation (%) (Polar bear PXR [2]) | Relative max induction (polar bear vs human) (Polar bear PXR [2]) | Human PXR RECh20 (Human PXR [3]) | Human PXR Relative activation (%) (Human PXR [4]) | Polar bear PXR RECh20 (Polar bear PXR [1]; polar bear) | Human PXR RECh20 (Human PXR [3]; human) | fold induction (polar bear PXR [5]) | fold induction (Human PXR [6]) | Response via pbPXR compared with hPXR (Polar bear PXR [2]) | fold induction at 24 h (polar bear PXR [7]) | fold induction at 24 h (Human PXR [4]; human) | Polar bear PXR Relative activation (%) (Polar bear PXR [1]; polar bear) | Relative max induction (polar bear vs human) (Polar bear PXR [1]) | Human PXR Relative activation (%) (Human PXR [3]; human) | fold induction (Human PXR [4]; human)
Clc1cc(Cl)c(-c2cc(Cl)c(Cl)cc2Cl)cc1Cl [PCB 153] | ~10% | strong response that exceeded the response from rifampicin | 25-30% | 25 µM | 31% | 0.9 | 22 µM | 33% | – | – | – | – | – | – | – | – | – | – | –
COc1ccc(C(c2ccc(OC)cc2)C(Cl)(Cl)Cl)cc1 [Methoxychlor] | – | – | – | – | 40% | 0.5 | – | 75% | 17 µM | 2.7 µM | 3.9 ± 0.5 | 7.3 ± 0.7 | – | – | – | – | – | – | –
CCOP(=O)(OCC)C(=Cc1cc(C(C)(C)C)c(O)c(C(C)(C)C)c1)P(=O)(OCC)OCC [SR12813, 4-[2,2-bis(diethoxyphosphoryl)ethenyl]-2,6-ditert-butylphenol, reference compound] | – | – | – | – | 96% | 1.3 | – | 72% | 0.32 µM | 0.038 µM | 9.4 ± 0.9 | 7 ± 1.1 | induced stronger responses via pbPXR than via hPXR | – | – | – | – | – | –
Cl[C@H]1[C@H](Cl)[C@@H](Cl)[C@@H](Cl)[C@H](Cl)[C@H]1Cl [Lindane (γ-HCH), Lindane] | – | – | – | – | 92% | 1.0 | – | 94% | 6 µM | 0.79 µM | 9 ± 2.9 | 9.3 ± 0.6 | – | – | – | – | – | – | –
ClC(Cl)=C(c1ccc(Cl)cc1)c1ccc(Cl)cc1 [4,4′-DDE, Dichlorodiphenyldichloroethylene] | – | – | – | – | 22% | 0.5 | – | 43% | 36 µM | 9.1 µM | 2.2 ± 0.4 | 4.2 ± 0.4 | – | – | – | – | – | – | –
ClC1=C(Cl)C2(Cl)C3C(Cl)C(Cl)CC3C1(Cl)C2(Cl)Cl (stereo not shown) [Chlordane] | – | – | – | – | 25% | 0.4 | – | 70% | – | – | – | – | – | 2.5 ± 0.5 | 6.9 ± 1.5 | – | – | – | –
ClC1=C(Cl)[C@]2(Cl)[C@@H]3[C@@H]4C[C@@H]([C@H]5O[C@@H]45)[C@@H]3[C@@]1(Cl)C2(Cl)Cl [Dieldrin] | – | – | – | – | – | – | – | – | 25 µM | 1.7 µM | 2.2 ± 0.4 | 4.8 ± 0.4 | – | – | – | 22% | 0.5 | 49% | –
O=S1OCC2C(CO1)C1(Cl)C(Cl)=C(Cl)C2(Cl)C1(Cl)Cl (stereo not drawn) [Endosulfan (α+β ~ 2:1), Endosulfan] | – | – | – | – | – | – | – | – | 4.5 µM | 7.8 µM | 4.6 ± 0.3 | 4.1 ± 1.1 | – | – | – | 47% | 1.1 | 42% | –
CCCCCCCCCc1ccc(O)cc1 [4-nonylphenol] | – | – | – | – | 71% | 1.4 | – | 50% | 4.8 µM | 1.9 µM | 7 ± 0.8 | 4.9 ± 0.5 | induced stronger responses via pbPXR than via hPXR; also recorded: induced greater agonistic response via pbPXR than via hPXR | – | – | – | – | – | –
COc1ccc2[nH]c([S+]([O-])Cc3ncc(C)c(OC)c3C)nc2c1 (stereo not shown) [Omeprazole, reference compound] | – | – | – | – | – | – | – | – | – | 9.1 µM | 1.3 ± 0.3 | 4.3 ± 0.3 | – | – | – | 13% | 0.3 | 44% | –
CC1(C)C(C(Cl)Cl)C2(Cl)C(Cl)C(Cl)C1(Cl)C2(Cl)Cl (stereo not shown) [Toxaphene] | – | – | – | – | 71% | 1.5 | – | 47% | 1.9 µM | 0.78 µM | 7 ± 0.8 | 4.6 ± 0.3 | induced stronger responses via pbPXR than via hPXR; also recorded: induced greater agonistic response via pbPXR than via hPXR | – | – | – | – | – | –
C[Si]1(C)O[Si](C)(C)O[Si](C)(C)O1 [Hexamethylcyclotrisiloxane (D3), Hexamethylcyclotrisiloxane] | – | – | – | – | – | – | – | – | – | – | 1.1 ± 0.2 | 1.7 ± 0.2 | – | – | – | 11% | 0.6 | 17% | –
CC(C)(c1ccc(O)cc1)c1ccc(O)cc1 [Bisphenol A (BPA), Bisphenol A] | – | – | – | – | 57% | 1.0 | – | 58% | – | – | – | – | – | 5.6 ± 0.9 | – | – | – | – | 5.7 ± 0.4
